Source: patent US20060204993A1, “Methods and compositions for modulating CHK2 pathways and methods for screening for same” (priority 2005, published 2006)
Residues, ends and D or L forms follow the SMILES beside them. *: point of attachment. Cbz = O=C(OCc1ccccc1)*; CH2F = FC*

How the values were obtained:
[1] = test system: DLD1-Chk2 clones (#17 and #22); assay: Cell cycle profile (DNA content by flow cytometry) after tetracycline induction of Chk2; assay type: cell-based, human
DLD1-Chk2 cells = assay: Apoptosis and mitosis markers (Annexin-V, Pancaspase, phospho-Histone H3) and Z-VAD rescue in tet-induced cells; assay type: cell-based, human; settings: DLD1-tet-Chk2#17 cells, +tet six days
Protocol: FIG. 2A is a graph showing the DNA contents of cells as measured by flow cytometry (upper panel) and the percentages of Annexin-V-positive cells and Pancaspase-positive cells determined by flow cytometric analysis (bottom panels). FIG. 2B is a photograph of fluorescent microscopy showing DLD1-tet-Chk2# 17 cells cultured in the presence or absence of tetracycline following staining with DePsipher Dye (Trevigen) and monitoring the intensity of the monomer ([…]) and aggregates ([…]) of DePsipher. FIG. 2C is a photograph of immunoblots showing DLD1-tet-Chk2 #17 cell lysates following tetracycline treatment. Lysates were prepared and subjected to immunoblotting with the antibodies indicated on the left. FIG. 2D is a series of graphs of flow cytometric analysis showing the DNA content, caspase activity and percentages of DLD1-tet-Chk2#17 cells undergoing apoptosis following treated with Z-VAD- or mock-treated (None) and cultured in the presence (+tet) or absence (−tet) of tetracycline for six days.
To investigate the effect of Chk2 expression on cell cycle progression, the cell cycle profiles of DLD1-Chk2 clones (#17 and #22) were analyzed after Chk2 induction by addition of tetracycline. […]

Structure (SMILES) | cell population with G2/M DNA content ([1]; uninduced 20%) | cell population with sub-G1 DNA content ([1]; uninduced ~4%) | cell population with S DNA content ([1]; uninduced ~25%) | cell population with G1 DNA content ([1]; uninduced ~52%) | rescue of Chk2-induced cell death (DLD1-Chk2 cells)
CN(C)[C@@H]1C(O)=C(C(N)=O)C(=O)[C@@]2(O)C(O)=C3C(=O)c4c(O)cccc4[C@@](C)(O)[C@H]3C[C@@H]12 [tetracycline] | 30-35% | ~40% | ~9% | ~25% | –
CC(NC(=O)C(NC(=O)OCc1ccccc1)C(C)C)C(=O)NC(CC(=O)O)C(=O)CF (stereo not drawn) [Z-VAD] (Cbz-Val-Ala-Asp-CH2F; configuration not given here) | – | – | – | – | partially rescued
